The target of assay [1] is T1, Bcl-2-related protein A1 (Mus musculus, UniProt Q07440).
T1 sequence (Q07440 whole entry): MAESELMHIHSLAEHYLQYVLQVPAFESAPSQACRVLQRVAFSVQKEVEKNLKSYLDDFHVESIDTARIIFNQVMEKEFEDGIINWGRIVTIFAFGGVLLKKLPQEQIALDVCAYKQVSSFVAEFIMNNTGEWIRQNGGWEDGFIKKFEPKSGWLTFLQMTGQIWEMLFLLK
Nature of the assay: Bfl-1 inhibitors blocking BH3 peptide binding, confirmation, biochemical, TR-FRET, mouse Bfl-1 (AID 621).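 Further: TR-FRET binding of GST-Bfl-1 to FITC-labelled Bid peptide via terbium antibody.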 On the technique in general: In TR-FRET formats the signal depends on donor and acceptor labels being close together.

Assay [2] deals with T1, Bcl-2-related protein A1. Nature of the assay: Bfl-1 inhibitors, primary screen, biochemical, fluorescence polarization, FITC-Bid, mouse (AID 432). A general note: In fluorescence polarisation assays a small probe gives low polarisation when free and higher when bound to something large.
In assay [3] the target is Heat shock protein HSP 90-alpha (Homo sapiens, UniProt P07900). Nature of the assay: Luminescence-based dose response biochemical high throughput screening assay for inhibitors of the Heat Shock Protein 90 (HSP90). [Related pubchem assays: 1831 (Summary AID.), 1846 (Confirmation screen.), 1789 (Primary screen.)].
Assay [4] is described as follows: cells. The format is functional.
Assay [5] is described as follows: Shn3 3'UTR reporter inhibitors, dose response, cell-based, Clone20 osteoblasts, firefly luciferase, cherry-picked (AID 624132).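 Further: firefly luciferase luminescence from reporter carrying the Shn3 3'UTR in osteoblasts.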 The format is functional.
The subject of assay [6] is BJ. The assay can be described thus: cytotoxicity toward BJ-TERT-LT-ST fibroblasts, dose response, cell-based, RAS-independent, luminescence (AID 1935).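 Further: BJ fibroblasts immortalized with TERT plus LT and ST oncogenes.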 The format is functional. The conditions noted are these: Homo sapiens.
Assay [7] addresses Luciferin 4-monooxygenase (Photinus pyralis, UniProt P08659). The assay can be described thus: firefly luciferase enzyme inhibitors, dose response, biochemical, luminescence (AID 1891).
A short description of assay [8]: Luminescence Cell-Based Dose Confirmation HTS to Identify Inhibitors of Platelet Dense Granule Release. [Related pubchem assays: 1663 (Primary HTS), 1678 (Summary of Project)]. The format is functional.
Assay [9] is described as follows: Jurkat T cell cytotoxicity, dose response, cytotoxicity control for P. falciparum gametocyte viability project, luminescence (AID 1117277).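 Further: potency reflects loss of cellular ATP meaning fewer viable cells.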 The format is functional, cell-based.
A short description of assay [10]: A549 cell cytotoxicity, dose response, cytotoxicity control, plate reader, cherry-pick, antagonist series (AID 743412). The format is functional, cell-based.
The test system of assay [11] is BJ. Nature of the assay: cells. The format is functional, cell-based. The following applies: Homo sapiens.
Assay [12] can be described thus: control 3'UTR Renilla luciferase suppression, dose response, counter-screen for Shn3 inhibitor project, cell-based, Clone20-Shn3RL, cherry-picked (AID 624133). The format is functional. On the technique in general: Counterscreens check selectivity or assay interference.
A short description of assay [13]: non-specific cell cytotoxicity, dose response, cytotoxicity control for PAX8 inhibitor project, plate reader, dry powder samples (AID 743021). The format is functional, cell-based.
Assay [14] can be described thus: P. falciparum late gametocyte killing, dose response, luminescence (AID 1117278).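 Further: gametocytes exposed to compound for 24 hours.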 The format is functional, cell-based.
The nature of assay [15]: LGR2 antagonists, dose response, cell-based, HEK293, CRE-luciferase reporter, cherry pick, set 2 (AID 743343).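 Further: transfected cells were stimulated with diluted bursicon conditioned medium after compound addition.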 The format is functional.
For assay [16], the system named is BJ. The assay can be described thus: cytotoxicity toward Ras-transformed BJeLR fibroblasts, dose response, cell-based, alamar blue fluorescence, cherrypicked samples (AID 2631).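 Further: confirmatory dose-response assay in RAS-dependent BJ fibroblasts engineered with TERT, LT and ST, with cytotoxicity read by fluorescence.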 The format is functional. The following applies: Homo sapiens.
The next assay has as its target Paired box protein Pax-8 (Homo sapiens, UniProt Q06710). The assay can be described thus: inhibitors of PAX8-driven TPO luciferase reporter, dose response, RMG-I cells, cherry-pick (AID 687027).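 Further: luciferase reporter driven by Pax8 target thyroperoxidase promoter measured by SteadyGlo luminescence.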 The format is functional, cell-based.
A short description of assay [17]: MC4R antagonists, dose response, counter-screen for LGR2 antagonist project, cell-based, plate reader, cherry pick (AID 743444).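 Further: transfected HEK 293 cells stimulated with alpha-MSH peptide; potency of inhibitors of the alpha-MSH evoked signal.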 The format is functional.
The nature of assay [18]: HEK293 cell cytotoxicity, dose response, cytotoxicity control, plate reader, cherry-picked samples (AID 743446). The format is functional, cell-based.
The subject of assay [19] is BJ. The assay can be described thus: cytotoxicity toward BJ-TERT fibroblasts, dose response, cell-based, RAS-independent, luminescence (AID 1933). The format is functional. The conditions noted are these: Homo sapiens.
Assay [20] is described as follows: HepG2 cell cytotoxicity, dose response, cytotoxicity control for Shn3 inhibitor project, CellTiter-Glo, cherry-picked (AID 624134). The format is functional, cell-based.
The nature of assay [21]: HepG2 cell cytotoxicity, dose response, cytotoxicity control, plate reader, cherry-pick, antagonist series (AID 743416). The format is functional, cell-based.
Assay [22] can be described thus: cytotoxicity toward DRD oncogenic fibroblasts, dose response, cell-based, non-viral oncogenic, luminescence (AID 1934). The format is functional. The following applies: Homo sapiens.
Another assay addresses Cytochrome P450 3A4 (Homo sapiens, UniProt P08684).
Assay [23] has as its target Voltage-gated inwardly rectifying potassium channel KCNH2 (Homo sapiens, UniProt Q12809). Nature of the assay: hERG protection from proarrhythmic block, potency, dose response, cell-based, thallium flux (AID 2121). The format is ADME.
In another assay the target is T2, Cytochrome P450 1A2 (Homo sapiens, UniProt P05177).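 Further: PubChem cytochrome P450 panel assay, CYP1A2 panel member.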
T2 sequence (P05177 whole entry): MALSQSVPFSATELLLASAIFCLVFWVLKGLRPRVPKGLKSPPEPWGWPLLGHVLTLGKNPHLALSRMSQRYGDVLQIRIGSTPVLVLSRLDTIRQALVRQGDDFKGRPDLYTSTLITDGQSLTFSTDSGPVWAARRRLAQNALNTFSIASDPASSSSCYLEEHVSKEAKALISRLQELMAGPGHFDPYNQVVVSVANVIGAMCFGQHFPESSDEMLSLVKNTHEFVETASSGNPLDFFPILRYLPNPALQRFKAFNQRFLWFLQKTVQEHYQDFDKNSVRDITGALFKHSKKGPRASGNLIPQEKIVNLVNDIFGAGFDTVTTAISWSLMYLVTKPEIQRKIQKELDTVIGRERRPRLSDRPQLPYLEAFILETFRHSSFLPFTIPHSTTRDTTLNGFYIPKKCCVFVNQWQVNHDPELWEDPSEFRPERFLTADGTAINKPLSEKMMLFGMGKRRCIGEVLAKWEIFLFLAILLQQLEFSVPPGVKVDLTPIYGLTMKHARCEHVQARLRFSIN

The target in the next assay is T3, Streptokinase A (Streptococcus pyogenes serotype M1, UniProt P10520).
T3 sequence (P10520 whole entry): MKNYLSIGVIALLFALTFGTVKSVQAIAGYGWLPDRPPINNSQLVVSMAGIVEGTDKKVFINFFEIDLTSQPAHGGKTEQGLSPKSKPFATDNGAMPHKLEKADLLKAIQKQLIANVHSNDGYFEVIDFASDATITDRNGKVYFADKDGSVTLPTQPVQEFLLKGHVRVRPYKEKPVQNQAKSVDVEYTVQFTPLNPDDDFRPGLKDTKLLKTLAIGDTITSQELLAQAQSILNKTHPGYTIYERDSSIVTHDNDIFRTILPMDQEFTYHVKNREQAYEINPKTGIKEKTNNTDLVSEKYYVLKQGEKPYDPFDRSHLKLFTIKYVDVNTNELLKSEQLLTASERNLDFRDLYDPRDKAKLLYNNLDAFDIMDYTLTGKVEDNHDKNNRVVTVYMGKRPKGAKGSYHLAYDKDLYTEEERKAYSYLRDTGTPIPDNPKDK
The assay can be described thus: S. pyogenes streptokinase expression inhibitors, potency, dose response, plasminogen activation absorbance, OD405 (AID 1914).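 Further: secreted streptokinase activity via plasminogen activation per viability signal from cell pellet.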 The format is functional, Streptococcus pyogenes M1 GAS.

In assay [24] the test system is Streptococcus sp. 'group A'. The assay can be described thus: growth inhibition of control SK(-) GAS strain, dose response, counter-screen for streptokinase expression inhibitor project, luminescence, kanamycin, BacTiterGlo, confirmation (AID 1900). The format is functional, organism-based.
Assay [25] deals with G-protein coupled receptor 55 (Homo sapiens, UniProt Q9Y2T6). Nature of the assay: GPR55 antagonists blocking LPI-driven arrestin recruitment, primary screen, imaging, U2OS, beta-arrestin-GFP, LPI agonist (AID 2013).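 Further: antagonist potency measured as reduced agonist-driven arrestin aggregation.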 The format is functional.
Chain of G-protein coupled receptor 55 (Q9Y2T6 whole entry): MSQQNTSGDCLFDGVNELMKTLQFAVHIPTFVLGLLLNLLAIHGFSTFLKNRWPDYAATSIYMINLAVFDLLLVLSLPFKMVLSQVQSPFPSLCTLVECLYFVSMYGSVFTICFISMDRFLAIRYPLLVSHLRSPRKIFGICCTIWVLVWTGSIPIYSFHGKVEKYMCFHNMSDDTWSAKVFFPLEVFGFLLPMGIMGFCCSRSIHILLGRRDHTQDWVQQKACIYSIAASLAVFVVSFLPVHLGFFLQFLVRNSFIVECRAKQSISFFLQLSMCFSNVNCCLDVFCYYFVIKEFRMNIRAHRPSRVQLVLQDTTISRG
The test system of a further assay is Streptococcus. Nature of the assay: Group A Streptococcus viability loss, dose response, counter-screen for streptokinase expression inhibitor project, luminescence, BacTiterGlo (AID 1915).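 Further: potency for reduction of bacterial viability or growth.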 The format is functional, organism-based.
Another assay has as its target Cytochrome P450 2C19 (Homo sapiens, UniProt P33261). The assay can be described thus: Cytochrome panel assay with activity outcomes. Panel member name: p450-cyp2c19 Compounds with AC50 equal or less than 10 uM are considered active. The format is functional. The following applies: read-out: AC50.
A short description of assay [26]: cells. The format is functional, cell-based.
The nature of assay [27]: cells. The format is functional, cell-based. The source holds these as a separate data set.
Assay [28] has as its target T4, Fatty acid synthase (Homo sapiens, UniProt P49327). Nature of the assay: FAS thioesterase domain inhibitors, dose response, biochemical, kinetic fluorescence intensity (AID 624326).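 Further: rate of fluorescence rise from hydrolysis of a fluorogenic O-methyl fluorescein ester substrate.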 The format is functional.
Assay [29] addresses E3 ubiquitin-protein ligase Mdm2 (Homo sapiens, UniProt Q00987). The assay can be described thus: enhancers of MDM2-luciferase reporter signal, concentration-effect titration, project on inhibitors of MDM2 ubiquitin ligase, cellular assay, luminescent readout, 384-well plate format (AID 1394).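 Further: MDM2 E3 inhibitors raise luminescence so EC50 is for signal enhancement.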 The format is functional.
In assay [30] the target is T4, Fatty acid synthase. Nature of the assay: FAS thioesterase domain inhibitors, dose response, biochemical, endpoint fluorescence intensity, uHTS hits (AID 624327).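 Further: fluorescence from hydrolysis of an O-methyl fluorescein acyl ester substrate by the enzyme.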 The format is functional.

Molecules are shown by their SMILES. Calls of active or inactive are those of the source.

T4 sequence (P49327 whole entry, the tested form may be a part): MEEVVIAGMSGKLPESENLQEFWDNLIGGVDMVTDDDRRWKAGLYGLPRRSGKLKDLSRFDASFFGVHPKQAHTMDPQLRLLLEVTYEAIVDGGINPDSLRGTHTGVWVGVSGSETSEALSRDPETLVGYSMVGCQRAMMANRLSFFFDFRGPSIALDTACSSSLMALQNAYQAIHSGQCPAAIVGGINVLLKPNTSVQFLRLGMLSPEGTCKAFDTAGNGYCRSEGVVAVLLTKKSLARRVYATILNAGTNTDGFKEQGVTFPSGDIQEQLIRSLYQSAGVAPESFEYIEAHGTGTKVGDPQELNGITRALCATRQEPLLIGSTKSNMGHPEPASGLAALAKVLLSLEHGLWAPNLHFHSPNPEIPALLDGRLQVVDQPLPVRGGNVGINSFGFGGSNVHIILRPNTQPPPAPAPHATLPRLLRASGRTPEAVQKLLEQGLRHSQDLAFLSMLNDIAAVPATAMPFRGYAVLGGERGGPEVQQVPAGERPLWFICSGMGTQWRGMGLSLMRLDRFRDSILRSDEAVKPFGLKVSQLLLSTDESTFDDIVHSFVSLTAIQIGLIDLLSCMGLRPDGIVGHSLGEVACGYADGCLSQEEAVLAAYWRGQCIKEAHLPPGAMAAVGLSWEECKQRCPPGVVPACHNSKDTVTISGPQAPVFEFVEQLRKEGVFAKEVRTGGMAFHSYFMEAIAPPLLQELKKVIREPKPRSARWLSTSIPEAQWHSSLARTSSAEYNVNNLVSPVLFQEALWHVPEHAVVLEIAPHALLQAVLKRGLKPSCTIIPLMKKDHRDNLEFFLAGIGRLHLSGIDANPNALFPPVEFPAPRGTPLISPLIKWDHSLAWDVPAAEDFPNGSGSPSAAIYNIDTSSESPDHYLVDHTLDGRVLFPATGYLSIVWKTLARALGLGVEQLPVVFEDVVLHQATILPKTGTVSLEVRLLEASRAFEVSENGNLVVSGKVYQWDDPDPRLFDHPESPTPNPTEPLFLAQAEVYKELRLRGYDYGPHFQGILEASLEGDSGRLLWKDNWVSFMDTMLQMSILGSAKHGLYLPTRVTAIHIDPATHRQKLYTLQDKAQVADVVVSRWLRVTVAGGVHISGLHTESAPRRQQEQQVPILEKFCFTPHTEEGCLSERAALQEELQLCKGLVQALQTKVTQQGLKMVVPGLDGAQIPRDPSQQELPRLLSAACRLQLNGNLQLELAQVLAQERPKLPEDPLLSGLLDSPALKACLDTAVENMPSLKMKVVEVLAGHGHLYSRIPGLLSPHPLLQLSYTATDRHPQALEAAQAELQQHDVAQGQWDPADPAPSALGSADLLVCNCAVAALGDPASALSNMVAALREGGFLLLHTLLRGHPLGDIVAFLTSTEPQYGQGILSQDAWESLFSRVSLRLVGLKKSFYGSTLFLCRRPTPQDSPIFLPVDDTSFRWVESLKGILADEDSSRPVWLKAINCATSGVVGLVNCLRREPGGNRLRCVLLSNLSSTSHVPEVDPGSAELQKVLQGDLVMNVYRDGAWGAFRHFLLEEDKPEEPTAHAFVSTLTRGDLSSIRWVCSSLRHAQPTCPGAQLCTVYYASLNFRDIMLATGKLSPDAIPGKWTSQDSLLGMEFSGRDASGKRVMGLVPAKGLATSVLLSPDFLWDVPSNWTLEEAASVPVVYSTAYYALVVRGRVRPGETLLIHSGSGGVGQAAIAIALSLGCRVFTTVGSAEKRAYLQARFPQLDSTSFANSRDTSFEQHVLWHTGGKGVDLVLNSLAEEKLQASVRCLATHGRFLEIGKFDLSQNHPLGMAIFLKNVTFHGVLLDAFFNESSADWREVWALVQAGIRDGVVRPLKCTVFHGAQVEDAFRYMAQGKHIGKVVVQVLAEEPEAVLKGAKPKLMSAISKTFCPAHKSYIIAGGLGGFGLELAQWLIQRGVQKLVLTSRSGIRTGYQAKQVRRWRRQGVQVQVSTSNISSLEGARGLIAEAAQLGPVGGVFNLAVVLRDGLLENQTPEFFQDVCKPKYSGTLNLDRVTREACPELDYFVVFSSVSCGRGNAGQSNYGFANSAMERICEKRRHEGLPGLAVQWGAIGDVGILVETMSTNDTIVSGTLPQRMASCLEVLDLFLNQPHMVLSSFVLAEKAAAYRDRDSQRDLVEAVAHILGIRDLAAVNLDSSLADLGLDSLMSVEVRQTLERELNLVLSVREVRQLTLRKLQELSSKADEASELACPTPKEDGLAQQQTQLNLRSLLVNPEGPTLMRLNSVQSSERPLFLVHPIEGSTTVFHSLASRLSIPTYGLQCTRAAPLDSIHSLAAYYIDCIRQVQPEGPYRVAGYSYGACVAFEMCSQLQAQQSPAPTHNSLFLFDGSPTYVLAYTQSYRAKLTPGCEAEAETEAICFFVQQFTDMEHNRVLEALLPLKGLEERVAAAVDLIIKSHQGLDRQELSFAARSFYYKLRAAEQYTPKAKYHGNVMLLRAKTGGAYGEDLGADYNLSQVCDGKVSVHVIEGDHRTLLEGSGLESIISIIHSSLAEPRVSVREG
Chain of Cytochrome P450 3A4 (P08684 whole entry): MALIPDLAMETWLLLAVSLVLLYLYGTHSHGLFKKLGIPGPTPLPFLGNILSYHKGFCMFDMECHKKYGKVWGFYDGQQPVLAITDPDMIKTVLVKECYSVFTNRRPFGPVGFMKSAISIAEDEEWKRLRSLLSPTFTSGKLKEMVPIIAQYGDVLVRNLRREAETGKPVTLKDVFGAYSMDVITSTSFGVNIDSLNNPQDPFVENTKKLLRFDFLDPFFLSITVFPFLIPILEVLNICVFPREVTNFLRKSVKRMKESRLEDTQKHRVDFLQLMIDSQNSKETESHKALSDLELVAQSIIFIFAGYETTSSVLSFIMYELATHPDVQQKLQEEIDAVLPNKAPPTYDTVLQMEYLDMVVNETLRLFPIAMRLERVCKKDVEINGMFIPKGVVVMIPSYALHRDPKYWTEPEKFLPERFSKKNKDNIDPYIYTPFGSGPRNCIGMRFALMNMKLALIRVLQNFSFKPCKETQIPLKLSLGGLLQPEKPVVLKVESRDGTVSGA
Chain of Luciferin 4-monooxygenase (P08659 whole entry): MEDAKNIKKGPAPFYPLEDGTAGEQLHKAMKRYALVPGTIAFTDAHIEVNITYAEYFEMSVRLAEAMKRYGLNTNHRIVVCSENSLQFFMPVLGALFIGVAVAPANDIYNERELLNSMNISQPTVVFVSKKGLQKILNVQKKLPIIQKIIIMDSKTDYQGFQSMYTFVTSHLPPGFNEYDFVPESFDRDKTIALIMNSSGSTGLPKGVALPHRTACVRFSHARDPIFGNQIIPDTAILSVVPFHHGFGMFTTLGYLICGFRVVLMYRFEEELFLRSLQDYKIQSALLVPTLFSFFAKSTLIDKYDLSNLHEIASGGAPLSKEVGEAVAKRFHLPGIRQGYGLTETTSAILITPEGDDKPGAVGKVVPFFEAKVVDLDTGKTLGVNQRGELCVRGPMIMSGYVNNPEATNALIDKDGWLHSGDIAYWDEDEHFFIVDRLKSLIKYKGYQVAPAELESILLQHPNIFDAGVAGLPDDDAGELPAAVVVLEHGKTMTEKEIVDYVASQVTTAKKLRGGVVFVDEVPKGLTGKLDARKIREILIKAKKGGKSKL
Chain of Voltage-gated inwardly rectifying potassium channel KCNH2 (Q12809 whole entry): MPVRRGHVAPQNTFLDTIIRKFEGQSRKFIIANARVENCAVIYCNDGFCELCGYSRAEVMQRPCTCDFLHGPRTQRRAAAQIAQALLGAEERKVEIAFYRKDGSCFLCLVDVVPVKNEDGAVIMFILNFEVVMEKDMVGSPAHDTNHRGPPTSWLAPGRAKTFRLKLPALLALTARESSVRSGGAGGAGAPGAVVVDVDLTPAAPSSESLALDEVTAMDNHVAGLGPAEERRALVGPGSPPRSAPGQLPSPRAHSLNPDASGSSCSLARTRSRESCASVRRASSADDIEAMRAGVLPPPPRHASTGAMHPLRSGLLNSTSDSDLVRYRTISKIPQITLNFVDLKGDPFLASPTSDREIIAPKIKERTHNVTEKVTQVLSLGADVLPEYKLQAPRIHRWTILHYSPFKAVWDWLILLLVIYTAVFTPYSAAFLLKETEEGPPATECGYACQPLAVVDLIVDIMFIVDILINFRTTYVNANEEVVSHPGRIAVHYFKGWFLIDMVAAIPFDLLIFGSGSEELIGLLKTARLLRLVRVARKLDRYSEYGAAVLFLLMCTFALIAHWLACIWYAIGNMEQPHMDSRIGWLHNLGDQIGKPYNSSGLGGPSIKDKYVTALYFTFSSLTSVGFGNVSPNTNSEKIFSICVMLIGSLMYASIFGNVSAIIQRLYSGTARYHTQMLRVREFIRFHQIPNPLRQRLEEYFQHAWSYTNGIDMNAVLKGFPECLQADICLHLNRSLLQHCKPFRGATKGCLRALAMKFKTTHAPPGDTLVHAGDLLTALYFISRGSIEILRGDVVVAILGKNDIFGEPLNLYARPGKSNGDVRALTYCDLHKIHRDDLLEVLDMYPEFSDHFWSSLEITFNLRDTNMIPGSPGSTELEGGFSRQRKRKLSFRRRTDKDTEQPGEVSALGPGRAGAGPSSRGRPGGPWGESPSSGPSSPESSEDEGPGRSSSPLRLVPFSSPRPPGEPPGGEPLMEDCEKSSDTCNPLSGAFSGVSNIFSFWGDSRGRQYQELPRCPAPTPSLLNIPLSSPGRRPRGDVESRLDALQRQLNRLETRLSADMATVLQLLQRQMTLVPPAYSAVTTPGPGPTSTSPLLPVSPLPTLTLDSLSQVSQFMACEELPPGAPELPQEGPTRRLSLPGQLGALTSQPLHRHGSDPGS

A word on the IC50: it is the concentration that inhibits the measured activity by half. Consider `Cc1nn(C)c(C)c1NC(=O)CSc1nc(-c2ccccc2F)nc2c1cnn2-c1ccccc1`, for which the half-inhibitory concentration (IC50) at Bcl-2-related protein A1 [1] and against Bcl-2-related protein A1 [2] was > 100 µM (not active) each time.

As to `CCOC(=O)c1csc(COc2ccc(OC)cc2)n1`, the IC50 is 8.03 µM (active) in assay [3] and 47.7 µM (active) in the assay “cells [4]”.

In general, AC50 refers to the concentration at which the activity in the assay is half-maximal. As a reminder, the EC50 is the concentration at which the effect is half-maximal. As to `O=c1c2ccccc2cnn1-c1nc2ccccc2[nH]1`, the concentration at half-maximal activity (AC50) in assay [5] was 1.33 µM (active); in assay [10], 2.6 µM (active); in assay [12], 27.2 µM (active); in [13], 3.39 µM (active); in assay [15], 0.275 µM (active); at Paired box protein Pax-8, 1.65 µM (active). The half-maximal activity concentration (AC50) was 0.288 µM (active) in [17], 2.23 µM (active) in assay [18], 12.1 µM (active) in assay [20] and 8.61 µM (active) in assay [21]. For the same molecule, the concentration giving a half-maximal response (EC50) in the assay with BJ [6] was 4.79 µM (active); in [7], 1.16 µM (active); in assay [8], 0.144 µM (active); in the assay on BJ [11] it was 4.94 µM (active); with BJ [16], > 133 µM (inactive); with BJ [19], 5.15 µM (active). Besides, the concentration for a half-maximal effect (EC50) in assay [22] was 5.22 µM (active). The half-inhibitory concentration (IC50) in [9] is 3.98 µM (active); in assay [14], 15.2 µM (inactive).

As for `COc1ccc(/C=C2/SC(N/N=C3\CC4CCC3(C)C4(C)C)=NC2=O)cc1` (stereo unspecified), the AC50 is 12.6 µM (inconclusive) at Cytochrome P450 3A4, 14.1 µM (inconclusive) at Cytochrome P450 1A2 and 20 µM (inconclusive) on Cytochrome P450 2C19. The EC50 is 0.22 µM (active) in assay [23], > 150 µM (not active) on Streptokinase A, 3.92 µM (active) in assay [24] and > 150 µM (not active) in the assay on Streptococcus. For the same molecule, the IC50 in assay [25] is 6 µM (active).

For `COCCn1/c(=N/C(=O)c2ccc(S(=O)(=O)N3CCCc4ccccc43)cc2)sc2cc(S(C)(=O)=O)ccc21`, the values for the concentration giving a half-maximal response (EC50) (in “cells [26]”; in the assay “cells [27]”; in [29]) were > 350 µM (not active), 298 µM (active) and 1.03 µM (not active), respectively. Also, the values for the IC50 on Fatty acid synthase [28] and at Fatty acid synthase [30] were 64.5 µM (inactive) and 45.9 µM (inactive), respectively.

The record behind these values is ChEMBL document CHEMBL1201862, “PubChem BioAssay data set” (2004).
